Measured values reported in the NIST ThermoML archive (doi:10.1021/je0302304).
Numbers after ± are expanded uncertainties.

Assay: refractive index (Na D-line) (dimensionless); xn = mol fraction of the nth substance listed
Conditions: 101.32 kPa, Liquid, Standard Abbe refractometry

COCCOCCOCCOC [2,5,8,11-tetraoxadodecane] + CCO
refractive index
Conditions | 288.15 K | 298.15 K | 308.15 K | 318.15 K
x1 = 0.0045 | 1.3641 ± 0.0005 | 1.36 ± 0.0005 | 1.3559 ± 0.0005 | 1.3517 ± 0.0005
x1 = 0.0085 | 1.3648 ± 0.0005 | 1.3608 ± 0.0005 | 1.3567 ± 0.0005 | 1.3525 ± 0.0005
x1 = 0.0125 | 1.3656 ± 0.0005 | 1.3616 ± 0.0005 | 1.3575 ± 0.0005 | 1.3533 ± 0.0005
x1 = 0.0165 | 1.3664 ± 0.0005 | 1.3624 ± 0.0005 | 1.3583 ± 0.0005 | 1.3541 ± 0.0005
x1 = 0.0205 | 1.3672 ± 0.0005 | 1.3632 ± 0.0005 | 1.359 ± 0.0005 | 1.3548 ± 0.0005
x1 = 0.0305 | 1.3691 ± 0.0005 | 1.365 ± 0.0005 | 1.3609 ± 0.0005 | 1.3567 ± 0.0005
x1 = 0.05 | 1.3724 ± 0.0005 | 1.3684 ± 0.0005 | 1.3644 ± 0.0005 | 1.3602 ± 0.0005
x1 = 0.1 | 1.3799 ± 0.0005 | 1.376 ± 0.0005 | 1.372 ± 0.0005 | 1.3679 ± 0.0005
x1 = 0.15 | 1.3862 ± 0.0005 | 1.3823 ± 0.0005 | 1.3782 ± 0.0005 | 1.3741 ± 0.0005
x1 = 0.2 | 1.3915 ± 0.0005 | 1.3875 ± 0.0005 | 1.3834 ± 0.0005 | 1.3794 ± 0.0005
x1 = 0.25 | 1.396 ± 0.0005 | 1.3919 ± 0.0005 | 1.3879 ± 0.0005 | 1.3839 ± 0.0005
x1 = 0.3 | 1.3998 ± 0.0005 | 1.3958 ± 0.0005 | 1.3917 ± 0.0005 | 1.3877 ± 0.0005
x1 = 0.35 | 1.4032 ± 0.0005 | 1.3991 ± 0.0005 | 1.395 ± 0.0005 | 1.391 ± 0.0005
x1 = 0.4 | 1.4061 ± 0.0005 | 1.402 ± 0.0005 | 1.3979 ± 0.0005 | 1.3939 ± 0.0005
x1 = 0.4499 | 1.4087 ± 0.0005 | 1.4046 ± 0.0005 | 1.4005 ± 0.0005 | 1.3965 ± 0.0005
x1 = 0.5 | 1.411 ± 0.0005 | 1.4069 ± 0.0005 | 1.4028 ± 0.0005 | 1.3988 ± 0.0005
x1 = 0.55 | 1.4131 ± 0.0005 | 1.409 ± 0.0005 | 1.4049 ± 0.0005 | 1.4008 ± 0.0005
x1 = 0.6 | 1.4149 ± 0.0005 | 1.4108 ± 0.0005 | 1.4067 ± 0.0005 | 1.4026 ± 0.0005
x1 = 0.65 | 1.4166 ± 0.0005 | 1.4125 ± 0.0005 | 1.4084 ± 0.0005 | 1.4043 ± 0.0005
x1 = 0.7 | 1.4181 ± 0.0005 | 1.414 ± 0.0005 | 1.4099 ± 0.0005 | 1.4058 ± 0.0005
x1 = 0.75 | 1.4195 ± 0.0005 | 1.4154 ± 0.0005 | 1.4113 ± 0.0005 | 1.4072 ± 0.0005
x1 = 0.7999 | 1.4208 ± 0.0005 | 1.4167 ± 0.0005 | 1.4126 ± 0.0005 | 1.4084 ± 0.0005
x1 = 0.8499 | 1.422 ± 0.0005 | 1.4179 ± 0.0005 | 1.4137 ± 0.0005 | 1.4096 ± 0.0005
x1 = 0.8998 | 1.4231 ± 0.0005 | 1.4189 ± 0.0005 | 1.4148 ± 0.0005 | 1.4106 ± 0.0005
x1 = 0.9498 | 1.4241 ± 0.0005 | 1.4199 ± 0.0005 | 1.4158 ± 0.0005 | 1.4116 ± 0.0005
x1 = 1 | 1.425 ± 0.0005 | 1.4209 ± 0.0005 | 1.4167 ± 0.0005 | 1.4125 ± 0.0005
